Experimental data reported in patent US20260327204A1, “DEGRADERS OF CYCLIN-DEPENDENT KINASE 12/13, COMPOSITIONS, AND USES THEREOF” (ZHEJIANG UNIVERSITY, priority 2023, published 2026).

How the values were obtained:
CDK13 = CDK13 (Homo sapiens, UniProt Q14004); experiment: Western blot degradation of CDK13 (Example 2); type: cell-based; parameters: degradation of CDK12/13 protein in leukemia cells KASUMI-1, MV4-11, and Jurkat; endogenous in cells; conditions: DC50 classes, cell line not given; for DC50: read-out: CDK13 degradation Activity
Protocol: (§1) Western blot was used to determine the degradation of CDK12/13 protein in leukemia cells KASUMI-1, MV4-11, and Jurkat. The two compounds with the best degradation effects were further validated for their ability to degrade CDK12/13 protein in breast cancer cells MDA-MB-231 using a concentration gradient.
(§2) • Cell lines: KASUMI-1, MV4-11, Jurkat, or MDA-MB-231 • Culture medium: DMEM/RIPM-1640+10% Hyclone serum • Compound dissolution method: Compounds were dissolved in DMSO to prepare a 50 mM stock solution, and then diluted to the corresponding concentrations.
(§3) (1) In vitro cell culture: The selected cells were cultured in a 37 °C constant temperature incubator with 5% CO2. Once the cell density reached 70-90%, they were passaged for subsequent experiments.
(§4) (2) Cell seeding: Cells were digested, and the cell suspension was transferred to a 1.5 mL Eppendorf tube. After centrifugation at 1,000 rpm for 5 min, the cells were resuspended in 2 mL of culture medium and counted. The cell suspension was seeded in a 24-well plate at a density of 200,000 cells per well and allowed to adhere for 8-12 h.
(§5) (3) Compound treatment: The 50 mM compound stock solution was diluted with cell culture medium to a final concentration of 0.01 μM-3 μM. Cells were incubated in a 37 °C incubator with 5% CO2 for 3 h-48 h. The DMSO group served as the negative control.
(§6) At the end of the treatment time, the cells were collected and washed once with PBS. An appropriate volume of 4% SDS was added to lyse the cells, and the mixture was sonicated until no longer viscous. After centrifugation at 12,000 rpm at room temperature for 30 min, the supernatant was transferred to a new EP tube for protein quantification.
(§7) The exposure results were quantitatively analyzed using Image J software. First, the grayscale values of the bands were calculated using Image J. Then, the grayscale value of the target protein was divided by the grayscale value of the internal reference protein for normalization. The calculation formula is: […]
(§8) Where A is the grayscale value and D is the degradation rate.
(§9) In the figures, CDK12 and CDK13 are the target proteins under study, and β-Actin and GAPDH are the internal reference proteins. Internal reference proteins are used to indicate the total protein amount in each experimental group for quantitative analysis.

CDK12 = CDK12 (Homo sapiens, UniProt Q9NYV4); experiment: Western blot degradation of CDK12 (Example 2); type: cell-based; parameters: degradation of CDK12/13 protein in leukemia cells KASUMI-1, MV4-11, and Jurkat; endogenous in cells; conditions: DC50 classes, cell line not given; for DC50: read-out: CDK12 degradation Activity
Protocol: as §1, §2, §3, §4, §5, §6, §7, §8, §9

Chain of CDK13 (Q14004 whole entry): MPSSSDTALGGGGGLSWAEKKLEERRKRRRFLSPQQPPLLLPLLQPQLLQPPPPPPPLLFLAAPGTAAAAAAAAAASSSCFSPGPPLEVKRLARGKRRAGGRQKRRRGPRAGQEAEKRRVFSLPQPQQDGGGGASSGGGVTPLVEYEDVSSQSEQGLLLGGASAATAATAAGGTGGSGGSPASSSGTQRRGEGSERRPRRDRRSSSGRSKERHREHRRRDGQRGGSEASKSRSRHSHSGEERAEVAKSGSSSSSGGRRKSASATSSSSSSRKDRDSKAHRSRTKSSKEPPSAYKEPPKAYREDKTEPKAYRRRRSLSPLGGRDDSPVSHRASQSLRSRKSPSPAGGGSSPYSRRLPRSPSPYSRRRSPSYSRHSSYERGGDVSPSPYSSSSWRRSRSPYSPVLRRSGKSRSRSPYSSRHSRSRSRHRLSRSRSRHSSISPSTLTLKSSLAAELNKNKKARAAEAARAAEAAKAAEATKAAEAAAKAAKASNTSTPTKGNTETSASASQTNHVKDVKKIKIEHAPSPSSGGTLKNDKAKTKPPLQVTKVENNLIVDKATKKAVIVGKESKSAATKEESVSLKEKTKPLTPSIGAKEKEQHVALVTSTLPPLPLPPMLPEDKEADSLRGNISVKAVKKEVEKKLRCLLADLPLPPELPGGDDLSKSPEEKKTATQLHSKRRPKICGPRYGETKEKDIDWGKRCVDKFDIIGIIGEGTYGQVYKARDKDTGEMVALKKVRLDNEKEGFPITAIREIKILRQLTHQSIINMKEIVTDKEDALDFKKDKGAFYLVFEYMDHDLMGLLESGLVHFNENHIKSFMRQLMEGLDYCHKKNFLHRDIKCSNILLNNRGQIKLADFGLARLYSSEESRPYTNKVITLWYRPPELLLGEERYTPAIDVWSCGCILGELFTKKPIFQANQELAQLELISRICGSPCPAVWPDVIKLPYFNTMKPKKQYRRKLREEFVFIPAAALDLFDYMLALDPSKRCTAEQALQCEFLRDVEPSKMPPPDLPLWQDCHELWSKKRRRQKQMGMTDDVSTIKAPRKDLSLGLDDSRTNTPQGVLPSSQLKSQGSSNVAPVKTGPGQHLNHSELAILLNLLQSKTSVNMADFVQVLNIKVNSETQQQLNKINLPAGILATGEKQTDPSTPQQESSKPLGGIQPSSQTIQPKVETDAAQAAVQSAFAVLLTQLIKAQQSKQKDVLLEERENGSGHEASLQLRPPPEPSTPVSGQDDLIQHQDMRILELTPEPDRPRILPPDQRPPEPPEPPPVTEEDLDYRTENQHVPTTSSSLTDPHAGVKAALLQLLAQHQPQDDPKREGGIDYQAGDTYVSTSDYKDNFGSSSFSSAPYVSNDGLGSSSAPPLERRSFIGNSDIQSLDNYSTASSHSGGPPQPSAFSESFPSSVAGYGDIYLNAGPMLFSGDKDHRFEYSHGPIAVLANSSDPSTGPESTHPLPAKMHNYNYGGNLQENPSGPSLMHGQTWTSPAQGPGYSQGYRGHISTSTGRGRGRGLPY
Chain of CDK13 (O75909 whole entry partner): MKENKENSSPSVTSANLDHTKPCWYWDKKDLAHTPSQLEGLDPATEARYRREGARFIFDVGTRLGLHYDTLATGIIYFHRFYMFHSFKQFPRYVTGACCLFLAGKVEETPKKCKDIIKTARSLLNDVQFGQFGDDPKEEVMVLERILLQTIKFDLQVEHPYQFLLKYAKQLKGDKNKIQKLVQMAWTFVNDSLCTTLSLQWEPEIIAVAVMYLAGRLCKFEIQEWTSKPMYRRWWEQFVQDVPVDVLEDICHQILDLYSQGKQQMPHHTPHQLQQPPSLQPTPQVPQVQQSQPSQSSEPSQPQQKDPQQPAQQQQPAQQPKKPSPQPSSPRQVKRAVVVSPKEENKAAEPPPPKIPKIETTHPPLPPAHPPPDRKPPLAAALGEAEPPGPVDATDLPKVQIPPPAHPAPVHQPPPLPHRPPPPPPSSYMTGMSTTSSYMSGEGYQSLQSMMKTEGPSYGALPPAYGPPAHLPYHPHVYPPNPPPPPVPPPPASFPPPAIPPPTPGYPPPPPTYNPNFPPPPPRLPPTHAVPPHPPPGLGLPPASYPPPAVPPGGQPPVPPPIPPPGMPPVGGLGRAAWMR
Chain of CDK12 (Q9NYV4 whole entry): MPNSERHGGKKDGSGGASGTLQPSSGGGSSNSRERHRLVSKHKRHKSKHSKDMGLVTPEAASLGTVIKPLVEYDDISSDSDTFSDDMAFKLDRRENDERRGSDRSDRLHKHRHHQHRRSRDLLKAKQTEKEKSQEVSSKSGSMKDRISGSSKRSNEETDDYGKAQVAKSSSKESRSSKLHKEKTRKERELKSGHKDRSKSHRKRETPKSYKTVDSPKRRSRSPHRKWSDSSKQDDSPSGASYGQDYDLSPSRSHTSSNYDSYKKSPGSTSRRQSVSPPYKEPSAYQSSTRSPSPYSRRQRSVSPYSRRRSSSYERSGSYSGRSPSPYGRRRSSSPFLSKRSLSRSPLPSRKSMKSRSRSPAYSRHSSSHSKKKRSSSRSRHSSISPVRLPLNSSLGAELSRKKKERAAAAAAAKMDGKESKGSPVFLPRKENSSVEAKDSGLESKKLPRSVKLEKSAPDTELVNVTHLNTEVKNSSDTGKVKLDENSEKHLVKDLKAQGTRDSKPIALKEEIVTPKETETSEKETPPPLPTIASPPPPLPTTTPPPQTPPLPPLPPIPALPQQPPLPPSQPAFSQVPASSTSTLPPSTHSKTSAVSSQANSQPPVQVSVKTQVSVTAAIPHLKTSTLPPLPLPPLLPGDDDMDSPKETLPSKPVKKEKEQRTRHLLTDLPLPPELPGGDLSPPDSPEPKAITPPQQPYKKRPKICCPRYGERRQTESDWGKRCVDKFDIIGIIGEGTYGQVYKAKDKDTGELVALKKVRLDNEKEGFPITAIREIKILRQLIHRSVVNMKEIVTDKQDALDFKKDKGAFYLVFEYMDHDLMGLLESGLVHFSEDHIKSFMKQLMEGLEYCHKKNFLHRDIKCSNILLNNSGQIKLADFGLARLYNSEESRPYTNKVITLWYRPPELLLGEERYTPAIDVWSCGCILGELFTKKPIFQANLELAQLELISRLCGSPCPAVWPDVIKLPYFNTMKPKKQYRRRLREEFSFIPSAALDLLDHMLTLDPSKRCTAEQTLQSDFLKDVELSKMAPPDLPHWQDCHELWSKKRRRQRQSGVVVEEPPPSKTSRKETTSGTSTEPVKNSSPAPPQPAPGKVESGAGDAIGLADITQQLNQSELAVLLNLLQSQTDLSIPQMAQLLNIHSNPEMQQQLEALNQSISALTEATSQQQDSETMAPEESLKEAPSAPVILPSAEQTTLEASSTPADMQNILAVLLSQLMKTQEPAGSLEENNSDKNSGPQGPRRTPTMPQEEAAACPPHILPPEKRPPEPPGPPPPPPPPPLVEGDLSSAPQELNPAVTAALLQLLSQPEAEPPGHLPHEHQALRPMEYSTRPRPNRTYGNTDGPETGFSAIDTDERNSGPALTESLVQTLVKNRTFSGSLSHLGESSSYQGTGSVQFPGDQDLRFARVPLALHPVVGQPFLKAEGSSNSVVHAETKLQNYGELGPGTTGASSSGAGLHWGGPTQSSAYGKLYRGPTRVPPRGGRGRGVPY
Chain of CDK12 (O75909 whole entry partner): as the sequence (O75909 whole entry partner) above

Row | DC50 (CDK13) | DC50 (CDK12) | CDK13 degradation Activity (CDK13) | CDK12 degradation Activity (CDK12) | Structure (SMILES)
1 | 1 to 3 µM | 1 to 3 µM |  |  | Cc1ncsc1-c1ccc([C@H](C)NC(=O)[C@@H]2C[C@@H](O)CN2C(=O)[C@@H](NC(=O)C2CCN(C(=O)C3CCN(c4ccc(-c5ccc(N(C(=O)NCc6ccccc6)[C@H]6CC[C@H](Nc7ccc(C#N)cn7)CC6)cc5)cn4)CC3)CC2)C(C)(C)C)cc1 [Formula 21]
2 |  |  | − | − | Cc1ncsc1-c1ccc([C@H](C)NC(=O)[C@@H]2C[C@@H](O)CN2C(=O)[C@@H](NC(=O)C2CCN(C(=O)C3CCN(c4ccc(N(C(=O)NCc5ccccc5)[C@H]5CC[C@H](Nc6ccc(C#N)cn6)CC5)cc4)CC3)CC2)C(C)(C)C)cc1 [Formula 22]
3 |  | 3 to 10 µM | − |  | Cc1ncsc1-c1ccc([C@H](C)NC(=O)[C@@H]2C[C@@H](O)CN2C(=O)[C@@H](NC(=O)CC#CC2CN(c3ccc(-c4ccc(N(C(=O)NCc5ccccc5)[C@H]5CC[C@H](Nc6ccc(C#N)cn6)CC5)cc4)cn3)C2)C(C)(C)C)cc1 [Formula 23]
4 |  |  | − | − | Cc1ncsc1-c1ccc([C@H](C)NC(=O)[C@@H]2C[C@@H](O)CN2C(=O)[C@@H](NC(=O)CC#CC2CN(c3ccc(N(C(=O)NCc4ccccc4)[C@H]4CC[C@H](Nc5ccc(C#N)cn5)CC4)cc3)C2)C(C)(C)C)cc1 [Formula 24]
5 | 3 to 10 µM | 3 to 10 µM |  |  | Cc1ncsc1-c1ccc([C@H](C)NC(=O)[C@@H]2C[C@@H](O)CN2C(=O)[C@@H](NC(=O)CN2CCC(C#Cc3ccc(N(C(=O)NCc4ccccc4)[C@H]4CC[C@H](Nc5ccc(C#N)cn5)CC4)cc3)CC2)C(C)(C)C)cc1 [Formula 25]
6 |  |  | − | − | Cc1ncsc1-c1ccc([C@H](C)NC(=O)[C@@H]2C[C@@H](O)CN2C(=O)[C@@H](NC(=O)CN2CC(C#Cc3ccc(N(C(=O)NCc4ccccc4)[C@H]4CC[C@H](Nc5ccc(C#N)cn5)CC4)cc3)C2)C(C)(C)C)cc1 [Formula 26]
7 |  | 3 to 10 µM | − |  | Cc1ncsc1-c1ccc([C@H](C)NC(=O)[C@@H]2C[C@@H](O)CN2C(=O)[C@@H](NC(=O)C2CC3(CC(Nc4ccc(N(C(=O)NCc5ccccc5)[C@H]5CC[C@H](Nc6ccc(C#N)cn6)CC5)cc4)C3)C2)C(C)(C)C)cc1 (stereo partly shown) [Formula 27]
8 | 3 to 10 µM | 3 to 10 µM |  |  | Cc1ncsc1-c1ccc([C@H](C)NC(=O)[C@@H]2C[C@@H](O)CN2C(=O)[C@@H](NC(=O)C2CC3(CC(Nc4ccc(-c5ccc(N(C(=O)NCc6ccccc6)[C@H]6CC[C@H](Nc7ccc(C#N)cn7)CC6)cc5)cn4)C3)C2)C(C)(C)C)cc1 (stereo partly shown) [Formula 28]
9 |  | 3 to 10 µM | − |  | Cc1ncsc1-c1ccc([C@H](C)NC(=O)[C@@H]2C[C@@H](O)CN2C(=O)[C@@H](NC(=O)CC2CN(c3ccc(-c4ccc(N(C(=O)NCc5ccccc5)[C@H]5CC[C@H](Nc6ccc(C#N)cn6)CC5)cc4)cn3)C2)C(C)(C)C)cc1 [Formula 29]
10 | 0.5 to 1 µM | 0.5 to 1 µM |  |  | Cc1ncsc1-c1ccc([C@H](C)NC(=O)[C@@H]2C[C@@H](O)CN2C(=O)[C@@H](NC(=O)CC2CCN(c3ccc(-c4ccc(N(C(=O)NCc5ccccc5)[C@H]5CC[C@H](Nc6ccc(C#N)cn6)CC5)cc4)cn3)C2)C(C)(C)C)cc1 (stereo partly shown) [Formula 30]
11 | 3 to 10 µM | 1 to 3 µM |  |  | Cc1ncsc1-c1ccc([C@H](C)NC(=O)[C@@H]2C[C@@H](O)CN2C(=O)[C@@H](NC(=O)CN2CCC(n3cc(-c4ccc(N(C(=O)NCc5ccccc5)[C@H]5CC[C@H](Nc6ccc(C#N)cn6)CC5)cc4)cn3)CC2)C(C)(C)C)cc1 [Formula 31]
12 | 0.5 to 1 µM | 1 to 3 µM |  |  | N#Cc1ccc(N[C@H]2CC[C@H](N(C(=O)NCc3ccccc3)c3ccc(-c4ccc(OCCOCCNc5cccc6c5C(=O)N(C5CCC(=O)NC5=O)C6=O)nc4)cc3)CC2)nc1 (stereo partly shown) [Formula 32]
13 | 3 to 10 µM | 1 to 3 µM |  |  | N#Cc1ccc(N[C@H]2CC[C@H](N(C(=O)NCc3ccccc3)c3ccc(-c4ccc(OCCOCCOCCOCCOCCNc5cccc6c5C(=O)N(C5CCC(=O)NC5=O)C6=O)nc4)cc3)CC2)nc1 (stereo partly shown) [Formula 35]
14 |  |  | − | − | N#Cc1ccc(N[C@H]2CC[C@H](N(C(=O)NCc3ccccc3)c3ccc(-c4ccc(OCCOCCOCCOCCOCCOCCNc5cccc6c5C(=O)N(C5CCC(=O)NC5=O)C6=O)nc4)cc3)CC2)nc1 (stereo partly shown) [Formula 36]
15 | 0.5 to 1 µM | 1 to 3 µM |  |  | N#Cc1ccc(N[C@H]2CC[C@H](N(C(=O)NCc3ccccc3)c3ccc(-c4ccc(OCCNc5cccc6c5C(=O)N(C5CCC(=O)NC5=O)C6=O)nc4)cc3)CC2)nc1 (stereo partly shown) [Formula 37]
16 | 1 to 3 µM | 0.5 to 1 µM |  |  | N#Cc1ccc(N[C@H]2CC[C@H](N(C(=O)NCc3ccccc3)c3ccc(N4CCN(CCOCCNc5cccc6c5C(=O)N(C5CCC(=O)NC5=O)C6=O)CC4)cc3)CC2)nc1 (stereo partly shown) [Formula 38]
17 | 3 to 10 µM | 1 to 3 µM |  |  | N#Cc1ccc(N[C@H]2CC[C@H](N(C(=O)NCc3ccccc3)c3ccc(N4CCN(CCOCCOCCNc5cccc6c5C(=O)N(C5CCC(=O)NC5=O)C6=O)CC4)cc3)CC2)nc1 (stereo partly shown) [Formula 39]
18 | 1 to 3 µM | 0.5 to 1 µM |  |  | N#Cc1ccc(N[C@H]2CC[C@H](N(C(=O)NCc3ccccc3)c3ccc(N4CCN(CCOCCOCCOCCNc5cccc6c5C(=O)N(C5CCC(=O)NC5=O)C6=O)CC4)cc3)CC2)nc1 (stereo partly shown) [Formula 40]
19 | 1 to 3 µM | 1 to 3 µM |  |  | N#Cc1ccc(N[C@H]2CC[C@H](N(C(=O)NCc3ccccc3)c3ccc(N4CCN(CCOCCOCCOCCOCCNc5cccc6c5C(=O)N(C5CCC(=O)NC5=O)C6=O)CC4)cc3)CC2)nc1 (stereo partly shown) [Formula 41]
20 | 1 to 3 µM | 1 to 3 µM |  |  | N#Cc1ccc(N[C@H]2CC[C@H](N(C(=O)NCc3ccccc3)c3ccc(N4CCN(CCNc5cccc6c5C(=O)N(C5CCC(=O)NC5=O)C6=O)CC4)cc3)CC2)nc1 (stereo partly shown) [Formula 42]
21 | 1 to 3 µM | 1 to 3 µM |  |  | CCNC(=O)N(c1ccc(-c2ccc(OCCOCCOCCOCCNc3cccc4c3C(=O)N(C3CCC(=O)NC3=O)C4=O)nc2)cc1)[C@H]1CC[C@H](Nc2ccc(C#N)cn2)CC1 (stereo partly shown) [Formula 43]
22 | 0.1 to 0.5 µM | 0.5 to 1 µM |  |  | CCNC(=O)N(c1ccc(-c2ccc(N3CCN(CC(=O)N[C@H](C(=O)N4C[C@H](O)C[C@H]4C(=O)N[C@@H](C)c4ccc(-c5scnc5C)cc4)C(C)(C)C)CC3)nc2)cc1)[C@H]1CC[C@H](Nc2ccc(C#N)cn2)CC1 [Formula 44]
23 | 0.5 to 1 µM | 1 to 3 µM |  |  | N#Cc1ccc(N[C@H]2CC[C@H](N(C(=O)NCc3ccccc3)c3ccc(-c4ccc(=O)n(CCOCCNc5cccc6c5C(=O)N(C5CCC(=O)NC5=O)C6=O)c4)cc3)CC2)nc1 (stereo partly shown) [Formula 46]
24 |  | 3 to 10 µM | − |  | N#Cc1ccc(N[C@H]2CC[C@H](N(C(=O)NCc3ccccc3)c3ccc(-c4ccc(=O)n(CCOCCOCCOCCNc5cccc6c5C(=O)N(C5CCC(=O)NC5=O)C6=O)c4)cc3)CC2)nc1 (stereo partly shown) [Formula 48]
25 | 1 to 3 µM | 0.5 to 1 µM |  |  | N#Cc1ccc(N[C@H]2CC[C@H](N(C(=O)NCc3ccccc3)c3ccc(-c4ccc(=O)n(CCOCCOCCOCCOCCNc5cccc6c5C(=O)N(C5CCC(=O)NC5=O)C6=O)c4)cc3)CC2)nc1 (stereo partly shown) [Formula 49]
26 | 3 to 10 µM | 3 to 10 µM |  |  | N#Cc1ccc(N[C@H]2CC[C@H](N(C(=O)NCc3ccccc3)c3ccc(-c4ccc(=O)n(CCOCCOCCOCCOCCOCCNc5cccc6c5C(=O)N(C5CCC(=O)NC5=O)C6=O)c4)cc3)CC2)nc1 (stereo partly shown) [Formula 50]
27 | 3 to 10 µM | 3 to 10 µM |  |  | Cc1ncsc1-c1ccc([C@H](C)NC(=O)[C@@H]2C[C@@H](O)CN2C(=O)[C@@H](NC(=O)N2CCC3(CC2)CCN(c2ccc(N(C(=O)NCc4ccccc4)[C@H]4CC[C@H](Nc5ccc(C#N)cn5)CC4)cc2)CC3)C(C)(C)C)cc1 [Formula 51]
28 |  | 3 to 10 µM | − |  | Cc1ncsc1-c1ccc([C@H](C)NC(=O)[C@@H]2C[C@@H](O)CN2C(=O)[C@@H](NC(=O)N2CCC3(CC2)CCN(c2ccc(N(C(=O)NCc4ccccc4)[C@H]4CC[C@H](Nc5ccc(C#N)cn5)CC4)cn2)CC3)C(C)(C)C)cc1 [Formula 52]
29 | 1 to 3 µM | 3 to 10 µM |  |  | Cc1ncsc1-c1ccc([C@H](C)NC(=O)[C@@H]2C[C@@H](O)CN2C(=O)[C@@H](NC(=O)N2CCN(c3ccc(N(C(=O)NCc4ccccc4)[C@H]4CC[C@H](Nc5ncc6ccccc6n5)CC4)cc3)CC2)C(C)(C)C)cc1 [Formula 53]
